{
  "source": "patent US20070049593A1",
  "about": "(priority 2004, published 2007)",
  "note": "Where a name gives a salt, the structure may show the parent alone.",
  "data": [
    {"target": "T1, HCV polymerase (Hepatitis C virus genotype 1b, UniProt P26663)", "T1 construct": "a region encoding NS5B (J Virol 1991 March, 65(3), 1105-13, 544 amino acids after deletion of 47 amino acids on the C-terminal); 6xHis (C); made in house; host or cells: Escherichia coli", "T1 sequence (P26663 2420-2963)": "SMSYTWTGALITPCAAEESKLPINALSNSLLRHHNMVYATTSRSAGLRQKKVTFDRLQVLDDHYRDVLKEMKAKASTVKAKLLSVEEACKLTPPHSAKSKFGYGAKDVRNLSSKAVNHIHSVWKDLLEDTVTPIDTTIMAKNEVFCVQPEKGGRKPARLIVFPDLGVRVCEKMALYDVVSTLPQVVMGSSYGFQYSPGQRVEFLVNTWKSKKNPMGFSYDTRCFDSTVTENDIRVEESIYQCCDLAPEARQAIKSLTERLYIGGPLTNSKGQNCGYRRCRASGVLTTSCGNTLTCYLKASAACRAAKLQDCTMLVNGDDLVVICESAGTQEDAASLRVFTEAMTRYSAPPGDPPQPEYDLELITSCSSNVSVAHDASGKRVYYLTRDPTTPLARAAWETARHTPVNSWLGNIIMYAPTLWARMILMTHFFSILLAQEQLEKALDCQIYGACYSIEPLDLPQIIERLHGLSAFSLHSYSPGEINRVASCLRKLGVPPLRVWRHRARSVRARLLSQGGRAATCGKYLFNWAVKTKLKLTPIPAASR", "assay": "biochemical", "parameters": "species or system HCV BK strain", "conditions": "not given", "procedure,_shortened": "(§1)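 Recombinant HCV BK-strain NS5B (C-terminal 47 aa deleted, His6-tagged, E. coli), 0.5 μg/ml, run with 5 μg/ml in vitro-transcribed RNA template (polyU/3′X), ATP/GTP/CTP 50 μM, UTP 2 μM plus [3H]UTP, pH 7.5, 25° C, 90 min. TCA-precipitated RNA counted by scintillation; IC50 from activity with vs without compound.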", "units": {"IC50": "nM"}, "values": [
      {"molecule": "CCN(CC)CCCCN1CCn2c(c(C3CCCCC3)c3ccc(C(=O)O)cc32)-c2ccc(Cl)cc21", "note": "[Example 1-424, 3-chloro-13-cyclohexyl-5-(4-diethylaminobutyl)-6,7-dihydro-5H-benzo[5,6][1,4]diazepino[7,1-a]indole-10-carboxylic acid]", "IC50": "< 100"},
      {"molecule": "Cc1ccc2c(c1)N(CCCCN1CCCCC1)CCn1c-2c(C2CCCCC2)c2ccc(C(=O)O)cc21", "note": "[Example 1-425, 13-cyclohexyl-3-methyl-5-[4-(piperidin-1-yl)butyl]-6,7-dihydro-5H-benzo[5,6][1,4]diazepino[7,1-a]indole-10-carboxylic acid dihydrochloride]", "IC50": "< 100"},
      {"molecule": "CN1CCCC1CCN1CCn2c(c(C3CCCCC3)c3ccc(C(=O)O)cc32)-c2ccc(Cl)cc21", "note": "(centres unmarked) [Example 1-426, 3-chloro-13-cyclohexyl-5-[2-(1-methylpyrrolidin-2-yl)ethyl]-6,7-dihydro-5H-benzo[5,6][1,4]diazepino[7,1-a]indole-10-carboxylic acid dihydrochloride]", "IC50": "< 100"},
      {"molecule": "CCOc1ccc2c(c1)N(CCN1CCC[C@@H](CCOC)C1)CCn1c-2c(C2CCCCC2)c2ccc(C(=O)O)cc21", "note": "[Example 1-427, 13-cyclohexyl-3-ethoxy-5-{2-[(S)-3-(2-methoxyethyl)piperidin-1-yl]ethyl}-6,7-dihydro-5H-benzo[5,6][1,4]diazepino[7,1-a]indole-10-carboxylic acid dihydrochloride]", "IC50": "< 100"},
      {"molecule": "CCCN(CC)CCCN1CCn2c(c(C3CCCCC3)c3ccc(C(=O)O)cc32)-c2ccc(Cl)cc21", "note": "[Example 1-428, 3-chloro-13-cyclohexyl-5-[3-(N-ethyl-N-propylamino)propyl]-6,7-dihydro-5H-benzo[5,6][1,4]diazepino[7,1-a]indole-10-carboxylic acid dihydrochloride]", "IC50": "< 100"},
      {"molecule": "CC(C)N(CCCN1CCn2c(c(C3CCCCC3)c3ccc(C(=O)O)cc32)-c2ccc(Cl)cc21)C(C)C", "note": "[Example 1-429, 3-chloro-13-cyclohexyl-5-(3-diisopropylaminopropyl)-6,7-dihydro-5H-benzo[5,6][1,4]diazepino[7,1-a]indole-10-carboxylic acid dihydrochloride]", "IC50": "< 100"},
      {"molecule": "CCc1ccc2c(c1)N(CCN1CCC[C@@H](CCOC)C1)CCn1c-2c(C2CCCCC2)c2ccc(C(=O)O)cc21", "note": "[Example 1-430, 13-cyclohexyl-3-ethyl-5-{2-[(S)-3-(2-methoxyethyl)piperidin-1-yl]ethyl}-6,7-dihydro-5H-benzo[5,6][1,4]diazepino[7,1-a]indole-10-carboxylic acid dihydrochloride]", "IC50": "< 100"},
      {"molecule": "CCN(CCCN1CCn2c(c(C3CCCCC3)c3ccc(C(=O)O)cc32)-c2ccc(Cl)cc21)CCOC", "note": "[Example 1-431, 3-chloro-13-cyclohexyl-5-{3-[N-ethyl-N-(2-methoxyethyl)amino]propyl}-6,7-dihydro-5H-benzo[5,6][1,4]diazepino[7,1-a]indole-10-carboxylic acid dihydrochloride]", "IC50": "< 100"},
      {"molecule": "CCN(CCCOC)CCCN1CCn2c(c(C3CCCCC3)c3ccc(C(=O)O)cc32)-c2ccc(Cl)cc21", "note": "[Example 1-432, 3-chloro-13-cyclohexyl-5-{3-[N-ethyl-N-(3-methoxypropyl)amino]propyl}-6,7-dihydro-5H-benzo[5,6][1,4]diazepino[7,1-a]indole-10-carboxylic acid dihydrochloride]", "IC50": "< 100"},
      {"molecule": "CCOCCCN(CC)CCCN1CCn2c(c(C3CCCCC3)c3ccc(C(=O)O)cc32)-c2ccc(Cl)cc21", "note": "[Example 1-433, 3-chloro-13-cyclohexyl-5-{3-[N-(3-ethoxypropyl)-N-ethylamino]propyl}-6,7-dihydro-5H-benzo[5,6][1,4]diazepino[7,1-a]indole-10-carboxylic acid dihydrochloride]", "IC50": "< 100"},
      {"molecule": "COCC[C@@H]1CCCN(CCN2CCn3c(c(C4CCCCC4)c4ccc(C(=O)O)cc43)-c3ccc(F)cc32)C1", "note": "[Example 1-434, 13-cyclohexyl-3-fluoro-5-{2-[(S)-3-(2-methoxyethyl)piperidin-1-yl]ethyl}-6,7-dihydro-5H-benzo[5,6][1,4]diazepino[7,1-a]indole-10-carboxylic acid dihydrochloride]", "IC50": "< 100"},
      {"molecule": "Cc1ccc2c(c1)N(CCN1CCCC(CO)C1)CCn1c-2c(C2CCCCC2)c2ccc(C(=O)O)cc21", "note": "(centres unmarked) [Example 1-435, 13-cyclohexyl-5-[2-(3-hydroxymethylpiperidin-1-yl)ethyl]-3-methyl-6,7-dihydro-5H-benzo[5,6][1,4]diazepino[7,1-a]indole-10-carboxylic acid dihydrochloride]", "IC50": "< 100"},
      {"molecule": "CCN(CC)CC(C)(C)CN1CCn2c(c(C3CCCCC3)c3ccc(C(=O)O)cc32)-c2ccc(Cl)cc21", "note": "[Example 1-436, 3-chloro-13-cyclohexyl-5-(3-diethylamino-2,2-dimethylpropyl)-6,7-dihydro-5H-benzo[5,6][1,4]diazepino[7,1-a]indole-10-carboxylic acid dihydrochloride]", "IC50": "< 100"},
      {"molecule": "CN1CCn2c(c(C3CCCCC3)c3ccc(C(=O)O)cc32)-c2ccc(OCCN3CCCCC3)cc21", "note": "[Example 1-437, 13-cyclohexyl-5-methyl-3-[2-(piperidin-1-yl)ethoxy]-6,7-dihydro-5H-benzo[5,6][1,4]diazepino[7,1-a]indole-10-carboxylic acid dihydrochloride]", "IC50": "< 100"},
      {"molecule": "CN1CCn2c(c(C3CCCCC3)c3ccc(C(=O)O)cc32)-c2ccc(OCCC3CCNCC3)cc21", "note": "[Example 1-438, 13-cyclohexyl-5-methyl-3-[2-(piperidin-4-yl)ethoxy]-6,7-dihydro-5H-benzo[5,6][1,4]diazepino[7,1-a]indole-10-carboxylic acid dihydrochloride]", "IC50": "< 100"},
      {"molecule": "CN1CCC(CCOc2ccc3c(c2)N(C)CCn2c-3c(C3CCCCC3)c3ccc(C(=O)O)cc32)CC1", "note": "[Example 1-439, 13-cyclohexyl-5-methyl-3-[2-(1-methylpiperidin-4-yl)ethoxy]-6,7-dihydro-5H-benzo[5,6][1,4]diazepino[7,1-a]indole-10-carboxylic acid dihydrochloride]", "IC50": "< 100"},
      {"molecule": "Cc1ccc2c(c1)N(CCN1CCCC(C)(C)C1)CCn1c-2c(C2CCCCC2)c2ccc(C(=O)O)cc21", "note": "[Example 1-440, 13-cyclohexyl-5-[2-(3,3-dimethylpiperidin-1-yl)ethyl]-3-methyl-6,7-dihydro-5H-benzo[5,6][1,4]diazepino[7,1-a]indole-10-carboxylic acid dihydrochloride]", "IC50": "< 100"},
      {"molecule": "CCN(CC)CC(CN1CCn2c(c(C3CCCCC3)c3ccc(C(=O)O)cc32)-c2ccc(Cl)cc21)OC", "note": "(centres unmarked) [Example 1-441, 3-chloro-13-cyclohexyl-5-(3-diethylamino-2-methoxypropyl)-6,7-dihydro-5H-benzo[5,6][1,4]diazepino[7,1-a]indole-10-carboxylic acid dihydrochloride]", "IC50": "< 100"},
      {"molecule": "CCN(CCO)CCCN1CCn2c(c(C3CCCCC3)c3ccc(C(=O)O)cc32)-c2ccc(Cl)cc21", "note": "[Example 1-442, 3-chloro-13-cyclohexyl-5-{3-[N-ethyl-N-(2-hydroxyethyl)amino]propyl}-6,7-dihydro-5H-benzo[5,6][1,4]diazepino[7,1-a]indole-10-carboxylic acid dihydrochloride]", "IC50": "< 100"}
    ]},
    {"target": "T1, HCV polymerase", "assay": "biochemical", "parameters": "species or system HCV BK strain", "conditions": "read-out: HCV polymerase inhibitory activity IC50; 25° C., 90 min; [5,6-3H]UTP incorporation into RNA", "procedure,_shortened": "as §1", "units": {"IC50": "nM"}, "values": [
      {"molecule": "O=C(O)c1ccc2c(C3CCCCC3)c3n(c2c1)CCN(CCN1CCCCCCC1)c1ccccc1-3", "note": "[Example 1-423, 5-[2-(azocan-1-yl)ethyl]-13-cyclohexyl-6,7-dihydro-5H-benzo[5,6][1,4]diazepino[7,1-a]indole-10-carboxylic acid dihydrochloride]", "IC50": "< 100"}
    ]}
  ]
}
